Laboratory results as given in patent US8007737B2, “Use of antioxidants to prevent oxidation and reduce drug degradation in drug eluting medical devices” (Wyeth, priority 2004, dated 2011).
Read-outs that look alike come from different tables or passages of the source.

What was measured:
cell viability = test: Cell viability assay; type: cell-based
Description: (§1) The multiple curves represent various concentrations of topotecan ranging from zero to three hundred nanomolar concentrations.
(§2) The multiple curves represent various concentrations of etoposide ranging from zero to eight hundred nanomolar concentrations.

[1] = tested on: human coronary artery smooth muscle cells; test: Anti-proliferative activity in synchronized cultured cells stimulated with two percent fetal bovine serum; type: cell-based; details: for effect on the anti-proliferative activity of rapamycin: topotecan zero to three hundred nanomolar, etoposide zero to eight hundred nanomolar, Panzem zero to 100 micromolar
Description: as §1, §2
The multiple curves represent various concentrations of Panzem® ranging from zero to 100 micromolar concentrations.

[2] = Drug content (% label claim) of sirolimus solutions with antioxidants, HPLC assay
Method: Screening experiments were performed to evaluate the solubility of various antioxidants in […] (THF) solutions containing sirolimus and the percentage of antioxidant required to prevent oxidation of sirolimus alone and in a basecoat polymeric matrix. THF is the solvent in which sirolimus may be dissolved. It is important to note that other solvents may be utilized. Two sets of controls were utilized. Control #1 comprises solutions of THF and sirolimus and/or polymers with no antioxidant, and Control #2 comprises solutions of THF and sirolimus and/or polymers, wherein the THF contains a label claim of 250 ppm of BHT as a stabilizer from the vendor of THF. In other words, the BHT is an added constituent of the THF solvent to prevent oxidation of the solvent. All percentages are given as weight/volume.
Table 11, shown below, identifies the samples for evaluation. All percentages are given as weight/volume. The samples in Table 11 contain no polymer. Table 12, also shown below, identifies the samples for evaluation with the solutions now comprising polymers, including PBMA and PEVA as described herein.
(60° C.). The samples were evaluated after five (5) days utilizing a drug testing assay for silolimus. In the exemplary embodiment, a HPLC assay was utilized.
Additional samples were tested under ambient conditions, rather than at 60° C., and using the same compositions; however, the test period was expanded to seven weeks.

[3] = Drug concentration in liquid formulations by liquid chromatography / HPLC; type: physicochemical
Description: In accordance with exemplary embodiments of the present invention, a series of liquid formulations were developed for the local or regional delivery of water insoluble compounds such as sirolimus and its analogs, including CCI-779, ABT-578 and everolimus, through weeping balloons and catheter injection needles. […] These liquid formulations increase the apparent solubility of the pharmacologically active but water insoluble compounds by two to four orders of magnitude as compared to the solubility limits of the compounds in water. These liquid formulations rely on the use of a very small amount of organic solvents such as Ethanol (typically less than two percent) and a larger amount of safe amphiphilic (of or relating to a molecule having a polar, water soluble group attached to a non-polar, water insoluble […]) excipients such as polyethylene glycol (PEG 200, PEG 400) and vitamin E TPGS to enhance the solubility of the compounds. These liquid formulations of highly water insoluble compounds are stable and readily flowable at room temperature. Certain excipients, such as Vitamin E TPGS and BHT may be utilized to enhance the storage stability of sirolimus compounds through their anti-oxidation properties. […]

tumor cell lines = details: Woo et al. 2002; cited from earlier work
[4] = tested on: human coronary artery smooth muscle cell proliferation; test: In vitro cell culture study of coronary artery smooth muscle cell proliferation; type: cell-based
Description: FIG. 51 is a graph of the inhibition of coronary artery smooth muscle cells by trichostatin A in a cell culture study.

[5] = In vivo release kinetics from polymeric stent coatings, porcine pharmacokinetics studies
Description: The topcoat is two hundred micro grams. […] Cladribine (2-chlorodeoxyadenosine or 2-CdA) is the 2-chloro-2′-deoxy derivative of the purine nucleoside, adenosine. Cladribine is resistant to degradation by adenosine deaminase, one of two intracellular adenine nucleotide regulatory enzymes, found in most cells. The other enzyme, 5′-nucleotidase, is present in variable amounts in different cell types (Carson et al., 1983). […] Thus, in cells such as leukocytes, which contain a high ratio (>0.04) of deoxycytidine kinase to 5′-nucleotidase, 2-CdA and its subsequent metabolites will tend to accumulate in pharmacological concentrations (Carson et al., 1983). Such high levels of a nucleoside triphosphate are known to inhibit the enzyme ribonucleotide reductase in rapidly dividing cells, thus preventing synthesis of deoxynucleotides required for DNA synthesis.
FIG. 61 is a graphical representation of the in vivo release kinetics of cladribine from a polymeric coating on Bx Velocity® stents, available from Cordis Corporation, implanted in a Yorkshire pig. […] The total weight of the topcoat is three hundred micrograms.
(§3) The basecoat is applied to Bx Velocity® stents and implanted into Yorkshire pigs.
as §3

[6] = tested on: human coronary artery smooth muscle cell survival; details: concentrations up to 30,000.00 nanomolar
Description: In vitro cytotoxicity tests or assays may be utilized to determine if drugs, agents and/or compounds are potentially toxic and the level of toxicity. Essentially, in vitro cytotoxicity assays determine acute necrotic effects by a drug causing direct cellular damage. The idea behind these assays is that toxic chemicals affect basic functions of cells which are common to all cells. […] There are a number of different assays that may be utilized. In the present invention, the cytotoxicity assay utilized is based upon the measurement of cellular metabolic activity. A reduction in metabolic activity is an indication of cellular damage. Tests that can measure metabolic function measure cellular ATP levels or mitochondrial activity via MTS metabolism. FIG. 69 is a graphical representation of the results of an MTS assay of Panzem®.

[7] = tested on: human coronary artery smooth muscle cells; test: Anti-proliferative activity in non-synchronized cultured cells stimulated with two percent fetal bovine serum; type: cell-based; details: for effect on the anti-proliferative activity of rapamycin: non-synchronized cells, mycophenolic acid zero to one thousand nanomolar, cladribine zero to nine hundred nanomolar
Description: The multiple curves represent various concentrations of mycophenolic acid ranging from zero to one thousand nanomolar concentrations.
FIG. 58 illustrates, in graphical format, the anti-proliferative activity of cladribine in non-synchronized cultured human coronary artery smooth muscle cells stimulated with two percent fetal bovine serum.
The multiple curves represent various concentrations of cladribine ranging from zero to nine hundred nanomolar concentrations.

[8] = tested on: human smooth muscle cells; test: Cladribine Example: PDGF-stimulated cell proliferation, cell count on day six; type: cell-based; details: from IC50 values
Method: To assess the ability of cladribine to prevent cell proliferation, human smooth muscle or endothelial cells (Clonetics, Walkersville, Md.) were seeded at a density of 2000 cells/cm^2 (approximately 3600 cells/well) into each well of 12-well plates and cultured with 1.5 ml of growth medium containing five percent fetal calf serum (FCS). After twenty-four hours, the growth medium was changed and fresh medium containing 10 ng/ml platelet-derived growth factor AB (PDGF AB; LIFE Technologies), as well as various concentrations of cladribine (0.001-10,000 nM) were added with triplicate wells. Medium was replaced with fresh cladribine-containing medium after three days. On day six, cells were detached by trypsinization to yield a cell suspension, lightly centrifuged to pellet and then counted manually using a Neubauer hemocytometer system. Cell viability was assessed by trypan blue exclusion.

[9] = Percent drug content change on coated cobalt-chromium 18 mm stent; type: physicochemical; details: 0.02 weight percent BHT per total basecoat solids; 8 weeks and 12 weeks, ambient conditions (25° C.)
Description: Referring to FIG. 75, there is illustrated in graphical format, the results of the same drug screening as described above with the solution applied to a cobalt-chromium, 18 mm stent. In this test, two sets of solution samples were utilized, one with sirolimus and polymer solution containing the antioxidant and one with sirolimus and polymer solution containing no antioxidant. The antioxidant utilized was 0.02 weight percent BHT per total basecoat solids.
The test was utilized to determine the percent drug content change over a time period of 0 to 12 weeks under two conditions; namely, 40° C. with 75 percent relative humidity, and ambient conditions (25° C.).

COc1cc([C@@H]2c3cc4c(cc3[C@@H](O[C@@H]3O[C@@H]5CO[C@@H](C)O[C@H]5[C@H](O)[C@H]3O)[C@H]3COC(=O)[C@H]23)OCO4)cc(OC)c1O [etoposide]
cytotoxicity (cell viability; concentrations up to ten micromolar): non-cytotoxic | effect on the anti-proliferative activity of rapamycin [1]: increases the percent inhibition of rapamycin alone

Tocopherol
protection of sirolimus against degradation ([2]; five days at 60° C.): significant protection | protection of sirolimus against degradation ([2]; four weeks at 60° C., higher percent concentrations of antioxidant): significant protection

CO[C@H]1C[C@@H]2CC[C@@H](C)[C@@](O)(O2)C(=O)C(=O)N2CCCC[C@H]2C(=O)O[C@H]([C@H](C)C[C@@H]2CC[C@@H](OC(=O)C(C)(CO)CO)[C@H](OC)C2)CC(=O)[C@H](C)/C=C(\C)[C@@H](O)[C@@H](OC)C(=O)[C@H](C)C[C@H](C)/C=C/C=C/C=C/1C [CCI-779]
concentration in the final solution (HPLC assay) ([3]; water and ethanol (less than two percent) as co-solvents, Vitamin E TPGS as excipient): 15 mg/mL

CC(/C=C/C(=O)NO)=C\[C@@H](C)C(=O)c1ccc(N(C)C)cc1 [trichostatin A]
anti-proliferative IC50's (tumor cell lines): low nM range | inhibition of human coronary artery smooth muscle cell proliferation [4]: completely inhibit | IC50 ([4]; human coronary artery smooth muscle cells, read-out: anti-proliferative IC50): ~6 nM

CC[C@@]1(O)C(=O)OCc2c1cc1n(c2=O)Cc2cc3c(CN(C)C)c(O)ccc3nc2-1 [topotecan]
cytotoxicity (cell viability; concentrations up to one micromolar): non-cytotoxic | effect on the anti-proliferative activity of rapamycin [1]: increases the percent inhibition of rapamycin alone

CO[C@H]1C[C@@H]2CC[C@@H](C)[C@@](O)(O2)C(=O)C(=O)N2CCCC[C@H]2C(=O)O[C@H]([C@H](C)C[C@@H]2CC[C@@H](O)[C@H](OC)C2)CC(=O)[C@H](C)/C=C(\C)[C@@H](O)[C@@H](OC)C(=O)[C@H](C)C[C@H](C)/C=C/C=C/C=C/1C [Rapamycin, rapamycin]
in vivo release rate from coating ([5]; pig, in vivo): slower release rate than that of mycophenolic acid | concentration relative to the solubility of sirolimus in water ([3]; 4 mg/ml formulation with PEG 200, ethanol and water): four hundred to about one thousand

COc1cc2c(cc1O)CC[C@@H]1[C@@H]2CC[C@]2(C)[C@@H](O)CC[C@@H]12 [Panzem®, 2-methoxyestradiol]
cytotoxicity (MTS assay) [6]: do not reduce human coronary artery smooth muscle cell survival | effect on the anti-proliferative activity of rapamycin [1]: increases the percent of inhibition of rapamycin alone | anti-proliferative activity ([1]; two percent fetal bovine serum): extremely effective inhibitor

Nc1nc(Cl)nc2c1ncn2[C@H]1C[C@H](O)[C@@H](CO)O1 [Cladribine, 2-chlorodeoxyadenosine]
effect on the anti-proliferative activity of rapamycin [7]: increases the percent inhibition of rapamycin alone | inhibition of human coronary artery smooth muscle cell proliferation ([7]; non-synchronized, two percent fetal bovine serum): completely inhibits | in vivo elution from coating relative to rapamycin ([5]; EVA/BMA basecoat, BMA topcoat, Bx Velocity stents, Yorkshire pigs): elutes more rapidly than rapamycin | in vivo elution from coating ([5]; PVDF/HFP 85/15 basecoat and topcoat, Bx Velocity stents, Yorkshire pig, after the first day): levels off significantly | potency on smooth muscle cells relative to endothelial cells [8]: approximately twice as potent

Cc1cc(C(C)(C)C)c(O)c(C(C)(C)C)c1 [BHT, Butylated Hydroxytoluene]
percent drug content change on stent [9]: lessens drug degradation | protection of sirolimus against degradation [2]: significant protection

COc1c(C)c2c(c(O)c1C/C=C(\C)CCC(=O)O)C(=O)OC2 [mycophenolic acid]
effect on the anti-proliferative activity of rapamycin [7]: potentiates the anti-proliferative activity of rapamycin

O=C1O[C@H]([C@@H](O)CO)C(O)=C1O [Ascorbic Acid]
protection of sirolimus against degradation [2]: significant protection
